Here are results for 1 molecule from patent US10913781B2, “Pepducin design and use” (Tufts Medical Center, Inc., priority 2011, dated 2021).

Peptide text beside a SMILES is read from it. * marks the point of attachment. Palmitoyl = CCCCCCCCCCCCCCCC(=O)*

The subject of this test is A549 xenografts. The format is in vivo, mouse. Here is the method:
FIG. 13 illustrates that monotherapy with PAR1-i3 pepducins inhibits tumor progression of A549 xenografts. (A) and (B): A549 mice treated with vehicle, P1pal-7, P1pal-i1-11, P1pal-10S, X1/2-i1, X1/2-i3, or Avastin. Each time point represents the mean±SE. (C): Final tumor volume at the completion of the experiment was calculated as a percentage of untreated vehicle control. (D): Serum-starved A549 adenocarcinoma cells were pretreated with P1pal-7, P1pal-10S, P1pal-i1-11, vehicle, or PD98059 and stimulated with thrombin. VEGF production was assessed by enzyme-linked immunosorbent assay. Data are expressed as mean±SD (*P<0.05, **P<0.01).
PAR1 expression level is correlated with reduced survival of patients with NSCLC. To define the relative importance of PAR1 in lung tumor progression, in vivo mouse models were used. […] An A549 lung adenocarcinoma xenograft model in nude mice was used to evaluate monotherapy with P1pal-7, P1pal-10S, P1pal-i1-11, or the VEGF antagonist Avastin.

On to `CCCCCCCCCCCCCCCC(=O)N[C@H](C(=O)N[C@@H](CC(C)C)C(=O)N[C@@H](CCCCN)C(=O)N[C@@H](CCSC)C(=O)N[C@@H](CCCCN)C(=O)N[C@H](C(=O)N[C@@H](CCCCN)C(=O)N[C@@H](CCCCN)C(=O)N1CCC[C@H]1C(=O)N[C@@H](C)C(=O)N[C@H](C(N)=O)C(C)C)C(C)C)[C@@H](C)CC` [P1pal-i1-11] (Palmitoyl-ILKMKVKKPAV-NH2), for which the “Early tumor growth blockade” value (by day 20) is reported as “significant blockade of tumor growth”. Further, the “Inhibition of tumor progression/growth (final tumor volume vs vehicle)” value (monotherapy, nude mice) is recorded as “did not inhibit the long-term growth”.
